Test results as given in US20220370440A1 (Lead Discovery Center GmbH, priority 2018, published 2022).

Assays:
[1] = Metabolic stability in mouse liver microsomes without cofactor NADPH; type: in vitro ADME; settings: for Stability in presence of mouse liver microsomes without cofactor NADPH [% remaining after 50 min]: 3 μM test compound, 37° C., LC-MS/MS
Text: There are two major groups of enzyme reactions catalyzed by drug metabolizing enzymes, the so called Phase I and Phase II reactions. The basic processes in phase I reactions are oxidation, reduction and/or hydrolysis mostly catalyzed by the cytochrome P450 (CYP) family of enzymes.
The following procedures describe the determination of the in vitro Phase I metabolic stability of test compounds using liver microsomes by measuring compound depletion over time. Test compound at the concentration of 3 μM was incubated with the liver microsomes from the mouse species and the experiment was performed without NADPH. The depletion of the test compounds was measured over time up to 50 minutes at 37° C. by LC-MS/MS. Different compounds were tested under these conditions for microsomal stability (see Table 5).

[2] = target: Her2 Exon 20 INSYVMA Ba/F3 (Homo sapiens, UniProt P04626, DUP772-775, cells depend on it); experiment: Her2 Exon 20 INSYVMA Ba/F3 CellTiter-Glo; type: cell-based; settings: CellTiter-Glo, 72 h, read-out: Her2 Exon 20 INSYVMA Ba/F3 CTG IC50
In short: (§1)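 Ba/F3 cells dependent on the mutant kinase, seeded and grown 24 h, then treated with compound for 72 h at 37 °C, 5% CO2. Viability by CellTiter-Glo ATP luminescence versus DMSO and 10 μM staurosporine controls; IC50 from dose-response fit, plates accepted at Z′ ≥0.5; bins A ≤100 nM to E >10000 nM.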

[3] = target: EGFR Exon 20 INSNPH Ba/F3 (Homo sapiens, UniProt P00533, DUP771-773, cells depend on it); experiment: EGFR Exon 20 INSNPH Ba/F3 CellTiter-Glo; type: cell-based; settings: CellTiter-Glo, 72 h, read-out: EGFR Exon 20 INSNPH Ba/F3 CTG IC50
In short: as §1

[4] = target: EGFR T790ML858R (Homo sapiens, UniProt P00533, L858R/T790M); experiment: EGFR T790ML858R Lance assay; type: biochemical
Procedure: (§2) Inhibition is indicated as […] [nM] (“−”=not measured). Compounds having an activity designated as “A” provided an IC50≤100 nM; compounds having an activity designated as “B” provided an 100 nM<IC50≤500 nM; compounds having an activity designated as “C” provided an 500 nM<IC50≤1000 nM; compounds having an activity designated as “D” provided an 1000 nM<IC50≤100000 nM; and compounds having an activity designated as “E” provided an IC50>10000 nM.

[5] = target: EGFR wt (Homo sapiens, UniProt P00533); experiment: EGFR wt Lance assay; type: biochemical
Procedure: as §2

[6] = system: H1975; experiment: H1975 CellTiter-Glo; type: cell-based; settings: Homo sapiens, NCI-H1975; 72 h compound incubation; read-out: H1975 CTG IC50
In short: (§3)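 Cells seeded, after 24 h at 37° C/5% CO2 treated with compounds in DMSO at various concentrations for 72 h. Viability from ATP luminescence (CellTiter-Glo); DMSO and 10 μM Staurosporine as controls; IC50 from dose-response fit, plates accepted at Z′ ≥0.5.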

[7] = target: T1, HER2 INS YVMA (Homo sapiens, UniProt P04626, INS775YVMA); experiment: Lance Kinase Activity Assay, HER2 INS YVMA (Her2 Exon 20 INSYVMA Lance); type: biochemical; settings: biochemical Lance assay
T1 construct: purchased DPF
In short: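 Kinase phosphorylates a ULight-labelled peptide substrate; Eu anti-phospho antibody gives TR-FRET (ex 340 nm, em 665/615 nm). Compounds in 1:3 serial dilution over 8 steps, reaction started with ATP, 1 h at room temperature, stopped with EDTA-containing detection mix for 1 h. IC50 from sigmoidal dose-response curves.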

[8] = system: A431; experiment: A431 CellTiter-Glo; type: cell-based; settings: Homo sapiens, A-431; 72 h compound incubation; read-out: A431 CTG IC50
In short: as §3

EGFR Exon 20 INSNPH Ba/F3, sequence (P00533 with tags, fused parts or gaps DUP771-773): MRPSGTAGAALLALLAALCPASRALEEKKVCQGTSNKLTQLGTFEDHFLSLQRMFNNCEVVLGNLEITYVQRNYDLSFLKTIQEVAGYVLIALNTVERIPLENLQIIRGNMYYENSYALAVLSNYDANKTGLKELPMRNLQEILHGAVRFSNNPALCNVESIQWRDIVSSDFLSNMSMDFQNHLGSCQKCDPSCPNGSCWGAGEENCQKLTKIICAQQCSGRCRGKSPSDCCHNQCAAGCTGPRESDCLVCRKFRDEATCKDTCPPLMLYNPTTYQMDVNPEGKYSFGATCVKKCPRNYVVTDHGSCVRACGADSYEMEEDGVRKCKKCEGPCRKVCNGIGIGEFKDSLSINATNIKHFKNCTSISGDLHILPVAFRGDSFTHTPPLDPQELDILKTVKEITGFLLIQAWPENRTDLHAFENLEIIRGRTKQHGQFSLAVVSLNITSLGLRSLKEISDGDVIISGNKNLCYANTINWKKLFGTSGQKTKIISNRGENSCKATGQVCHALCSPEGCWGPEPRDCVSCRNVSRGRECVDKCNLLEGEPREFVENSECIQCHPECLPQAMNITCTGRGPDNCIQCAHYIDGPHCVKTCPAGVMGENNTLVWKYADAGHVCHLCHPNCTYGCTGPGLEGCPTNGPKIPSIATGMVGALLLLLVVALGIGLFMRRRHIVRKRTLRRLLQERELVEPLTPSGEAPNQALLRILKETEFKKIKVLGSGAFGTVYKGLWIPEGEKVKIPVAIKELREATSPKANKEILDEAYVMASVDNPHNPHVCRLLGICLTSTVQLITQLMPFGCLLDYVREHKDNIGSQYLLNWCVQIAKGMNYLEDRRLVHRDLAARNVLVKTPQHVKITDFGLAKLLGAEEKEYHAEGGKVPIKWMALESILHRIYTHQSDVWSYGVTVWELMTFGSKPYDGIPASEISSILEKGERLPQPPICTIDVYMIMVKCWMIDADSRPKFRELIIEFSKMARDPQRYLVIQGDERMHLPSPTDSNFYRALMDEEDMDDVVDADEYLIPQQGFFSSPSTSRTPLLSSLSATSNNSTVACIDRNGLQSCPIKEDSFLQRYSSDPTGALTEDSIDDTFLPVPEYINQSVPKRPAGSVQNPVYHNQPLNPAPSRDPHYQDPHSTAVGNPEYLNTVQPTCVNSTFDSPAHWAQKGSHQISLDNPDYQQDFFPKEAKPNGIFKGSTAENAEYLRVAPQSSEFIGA
EGFR wt, sequence (P00533 25-1210): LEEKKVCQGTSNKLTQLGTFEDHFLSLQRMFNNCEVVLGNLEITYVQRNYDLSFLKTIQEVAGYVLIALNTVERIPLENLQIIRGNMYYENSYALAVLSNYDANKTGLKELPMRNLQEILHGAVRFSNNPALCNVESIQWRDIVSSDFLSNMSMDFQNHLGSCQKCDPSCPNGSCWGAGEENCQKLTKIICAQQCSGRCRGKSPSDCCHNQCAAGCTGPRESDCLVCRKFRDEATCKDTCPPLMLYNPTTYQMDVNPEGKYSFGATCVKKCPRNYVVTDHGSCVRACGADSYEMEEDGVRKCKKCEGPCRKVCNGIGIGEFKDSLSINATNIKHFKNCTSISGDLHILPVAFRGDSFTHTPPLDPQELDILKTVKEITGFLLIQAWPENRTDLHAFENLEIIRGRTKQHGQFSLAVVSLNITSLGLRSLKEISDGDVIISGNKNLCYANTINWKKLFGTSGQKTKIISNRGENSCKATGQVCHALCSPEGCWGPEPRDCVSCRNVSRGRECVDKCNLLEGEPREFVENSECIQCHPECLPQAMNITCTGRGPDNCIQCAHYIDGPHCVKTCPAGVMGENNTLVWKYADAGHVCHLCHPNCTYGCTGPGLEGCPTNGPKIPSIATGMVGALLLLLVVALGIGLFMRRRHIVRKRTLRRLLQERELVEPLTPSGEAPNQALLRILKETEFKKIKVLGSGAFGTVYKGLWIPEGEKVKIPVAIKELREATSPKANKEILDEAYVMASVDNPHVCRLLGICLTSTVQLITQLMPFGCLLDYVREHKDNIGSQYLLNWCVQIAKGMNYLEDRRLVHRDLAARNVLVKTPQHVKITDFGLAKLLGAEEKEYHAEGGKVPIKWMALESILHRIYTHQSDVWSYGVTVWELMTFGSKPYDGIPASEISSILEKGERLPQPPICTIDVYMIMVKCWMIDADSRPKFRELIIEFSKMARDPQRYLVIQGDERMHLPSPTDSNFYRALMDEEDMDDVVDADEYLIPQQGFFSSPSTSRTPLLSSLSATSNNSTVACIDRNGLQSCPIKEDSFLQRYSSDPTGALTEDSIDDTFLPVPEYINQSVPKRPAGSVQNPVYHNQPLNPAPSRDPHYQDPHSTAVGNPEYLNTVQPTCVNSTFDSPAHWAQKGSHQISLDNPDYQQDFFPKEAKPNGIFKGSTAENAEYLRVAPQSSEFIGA
EGFR T790ML858R, sequence (P00533 25-1210 T790M/L858R): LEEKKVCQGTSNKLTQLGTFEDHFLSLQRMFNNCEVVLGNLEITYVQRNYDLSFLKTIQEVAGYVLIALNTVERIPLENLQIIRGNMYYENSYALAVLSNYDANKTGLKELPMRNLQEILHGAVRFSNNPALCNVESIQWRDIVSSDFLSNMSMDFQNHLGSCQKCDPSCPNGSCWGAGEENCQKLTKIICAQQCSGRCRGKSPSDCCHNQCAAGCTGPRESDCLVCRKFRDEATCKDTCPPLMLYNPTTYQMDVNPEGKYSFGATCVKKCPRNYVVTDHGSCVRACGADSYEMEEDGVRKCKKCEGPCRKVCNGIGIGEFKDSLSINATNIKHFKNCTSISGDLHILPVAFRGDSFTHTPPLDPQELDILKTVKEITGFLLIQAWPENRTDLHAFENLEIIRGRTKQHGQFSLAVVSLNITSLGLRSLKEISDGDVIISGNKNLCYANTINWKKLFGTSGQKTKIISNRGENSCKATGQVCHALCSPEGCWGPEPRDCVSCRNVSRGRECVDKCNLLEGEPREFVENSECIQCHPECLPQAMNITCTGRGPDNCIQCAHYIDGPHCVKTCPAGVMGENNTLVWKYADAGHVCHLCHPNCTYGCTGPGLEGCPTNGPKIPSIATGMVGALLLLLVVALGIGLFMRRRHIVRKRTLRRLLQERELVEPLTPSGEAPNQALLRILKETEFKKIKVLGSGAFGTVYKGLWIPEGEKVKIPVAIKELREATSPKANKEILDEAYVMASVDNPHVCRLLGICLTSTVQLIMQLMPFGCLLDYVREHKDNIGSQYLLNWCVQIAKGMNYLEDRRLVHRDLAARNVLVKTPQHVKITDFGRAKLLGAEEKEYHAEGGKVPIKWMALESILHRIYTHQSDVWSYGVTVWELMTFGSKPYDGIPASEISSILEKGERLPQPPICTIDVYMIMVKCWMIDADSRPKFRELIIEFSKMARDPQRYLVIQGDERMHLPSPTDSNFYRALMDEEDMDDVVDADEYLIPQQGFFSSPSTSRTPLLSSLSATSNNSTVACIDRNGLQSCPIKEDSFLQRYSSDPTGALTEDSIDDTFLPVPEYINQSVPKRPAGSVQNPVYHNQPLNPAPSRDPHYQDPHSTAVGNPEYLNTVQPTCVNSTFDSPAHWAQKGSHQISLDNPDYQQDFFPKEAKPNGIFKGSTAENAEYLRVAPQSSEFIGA
T1 sequence (P04626 with tags, fused parts or gaps INS775YVMA): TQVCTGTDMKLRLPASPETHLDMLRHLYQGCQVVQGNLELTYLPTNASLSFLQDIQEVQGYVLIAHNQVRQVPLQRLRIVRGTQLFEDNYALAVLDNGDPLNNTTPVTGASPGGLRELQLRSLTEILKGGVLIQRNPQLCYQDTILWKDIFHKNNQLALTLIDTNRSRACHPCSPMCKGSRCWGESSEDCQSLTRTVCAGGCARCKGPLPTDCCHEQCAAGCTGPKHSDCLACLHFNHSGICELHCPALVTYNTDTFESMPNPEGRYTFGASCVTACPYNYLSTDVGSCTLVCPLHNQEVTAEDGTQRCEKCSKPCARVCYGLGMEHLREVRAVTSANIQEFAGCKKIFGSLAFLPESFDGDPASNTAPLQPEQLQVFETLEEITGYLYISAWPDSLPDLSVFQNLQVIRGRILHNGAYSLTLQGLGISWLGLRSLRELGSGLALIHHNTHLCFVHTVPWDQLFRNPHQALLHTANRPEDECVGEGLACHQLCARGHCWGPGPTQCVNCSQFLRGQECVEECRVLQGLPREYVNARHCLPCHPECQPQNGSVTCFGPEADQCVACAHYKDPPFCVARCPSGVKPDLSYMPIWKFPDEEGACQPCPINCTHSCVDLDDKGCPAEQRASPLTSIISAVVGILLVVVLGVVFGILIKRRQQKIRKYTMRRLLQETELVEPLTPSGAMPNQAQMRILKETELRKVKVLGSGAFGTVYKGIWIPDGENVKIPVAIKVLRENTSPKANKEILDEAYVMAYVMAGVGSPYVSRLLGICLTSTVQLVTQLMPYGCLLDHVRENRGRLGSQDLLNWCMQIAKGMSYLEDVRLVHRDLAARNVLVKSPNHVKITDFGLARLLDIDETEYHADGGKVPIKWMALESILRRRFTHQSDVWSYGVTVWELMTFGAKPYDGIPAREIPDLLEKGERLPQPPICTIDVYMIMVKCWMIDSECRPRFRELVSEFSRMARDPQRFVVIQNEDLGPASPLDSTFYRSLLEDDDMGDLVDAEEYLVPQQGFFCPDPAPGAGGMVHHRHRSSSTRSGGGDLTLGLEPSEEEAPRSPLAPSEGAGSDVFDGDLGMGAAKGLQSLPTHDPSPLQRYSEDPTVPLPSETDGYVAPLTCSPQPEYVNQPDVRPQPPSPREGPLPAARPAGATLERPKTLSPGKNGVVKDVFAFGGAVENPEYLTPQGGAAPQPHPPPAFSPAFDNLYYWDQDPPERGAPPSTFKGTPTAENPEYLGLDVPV

SMILES | Stability in presence of mouse liver microsomes without cofactor NADPH [% remaining after 50 min] [1] [% remaining after 50 min] | GI50 [2] [nM] | GI50 [3] [nM] | IC50 [4] [nM] | IC50 [5] [nM] | IC50 [6] [nM] | IC50 [7] [nM] | major metabolite observed ([1]; mouse liver microsomes with and without the cofactor NADPH) | IC50 [8] [nM]
C=CC(=O)Nc1cc(-c2c(-c3cccc(C(=O)N4CCOCC4)c3)[nH]c3nccc(Cl)c23)ccc1C [Example 27, N-(5-(4-chloro-2-(3-(morpholine-4-carbonyl)phenyl)-1H-pyrrolo[2,3-b]pyridin-3-yl)-2-methylphenyl)acrylamide] | >99 | 1000 to 10000 | 1000 to 10000 | ≤ 100 | 100 to 500 | 100 to 500 | 500 to 1000 |  | 
C=CC(=O)Nc1cc(-c2c(-c3cncnc3)[nH]c3nccc(Cl)c23)ccc1C [Example 24, N-(5-(4-chloro-2-(pyrimidin-5-yl)-1H-pyrrolo[2,3-b]pyridin-3-yl)-2-methylphenyl)acrylamide] | >99 | 500 to 1000 | 500 to 1000 | ≤ 100 | 100 to 500 | 100 to 500 | 100 to 500 |  | 
C=CC(=O)Nc1cc(-c2c(-c3ccc(C(=O)N4CCN(C)CC4)cc3)[nH]c3nccc(Cl)c23)ccc1C [Example 9, N-(5-(4-chloro-2-(4-(4-methylpiperazine-1-carbonyl)phenyl)-1H-pyrrolo[2,3-b]pyridin-3-yl)-2-methylphenyl)acrylamide] | >99 | 100 to 500 | 100 to 500 | ≤ 100 | ≤ 100 | ≤ 100 | ≤ 100 |  | 
C=CC(=O)Nc1cc(OC)cc(-c2c(-c3ccc(N4CCN(C)CC4)cc3)[nH]c3ncccc23)c1 [Reference 2, reference compound] | 48 |  |  |  |  |  |  |  | 
C=CC(=O)Nc1cc(-c2c(-c3ccc(C4CCN(C)CC4)cc3)[nH]c3nccc(OCC)c23)ccc1C [Example 147, 2,2,2-trifluoroacetate] | 94 | 500 to 1000 | 500 to 1000 | ≤ 100 | ≤ 100 | ≤ 100 | ≤ 100 |  | 
C=CC(=O)Nc1cccc(-c2c(-c3ccc(C4CCN(C)CC4)cc3)[nH]c3ncccc23)c1 [Reference 1, reference compound] | 33 |  |  |  |  |  |  | hydrolysis of the acrylamide moiety | 
C=CC(=O)Nc1cc(-c2c(-c3cccc(CN4CCN(C(C)=O)CC4)c3)[nH]c3nccc(Cl)c23)ccc1C [Example 22, N-(5-(2-(3-((4-acetylpiperazin-1-yl)methyl)phenyl)-4-chloro-1H-pyrrolo[2,3-b]pyridin-3-yl)-2-methylphenyl)acrylamide] | >99 | 500 to 1000 | 1000 to 10000 | ≤ 100 | 100 to 500 | 100 to 500 | 100 to 500 |  | 
C=CC(=O)Nc1cc(-c2c(-c3ccc(NS(C)(=O)=O)cc3)[nH]c3nccc(Cl)c23)ccc1C [Example 12, N-(5-(4-chloro-2-(4-(methylsulfonamido)phenyl)-1H-pyrrolo[2,3-b]pyridin-3-yl)-2-methylphenyl)acrylamide] | >99 | 100 to 500 | 100 to 500 | ≤ 100 | ≤ 100 | ≤ 100 | 100 to 500 |  | 
C=CC(=O)Nc1cc(-c2c(-c3ccc(N4CCN(C)CC4)cc3OC)[nH]c3nccc(Cl)c23)ccc1C [Example 21, N-(5-(4-chloro-2-(2-methoxy-4-(4-methylpiperazin-1-yl)phenyl)-1H-pyrrolo[2,3-b]pyridin-3-yl)-2-methylphenyl)acrylamide] | 93 | 500 to 1000 | 500 to 1000 | ≤ 100 | ≤ 100 | ≤ 100 | 100 to 500 |  | 
C=CC(=O)Nc1cc(-c2c(-c3ccc(N4CCN(C(C)=O)CC4)nc3)[nH]c3nccc(Cl)c23)ccc1C [Example 31, N-(5-(2-(6-(4-acetylpiperazin-1-yl)pyridin-3-yl)-4-chloro-1H-pyrrolo[2,3-b]pyridin-3-yl)-2-methylphenyl)acrylamide] | >99 | 1000 to 10000 | 1000 to 10000 | ≤ 100 | 500 to 1000 | 100 to 500 | 100 to 500 |  | 
C=CC(=O)Nc1cc(-c2c(-c3ccc(N4CCN(C)CC4)cc3)[nH]c3ncc(C(=O)OC(C)C)cc23)ccc1C [Example 117, isopropyl 3-(3-acrylamido-4-methylphenyl)-2-(4-(4-methylpiperazin-1-yl)phenyl)-1H-pyrrolo[2,3-b]pyridine-5-carboxylate 2,2,2-trifluoroacetate] | 100 |  |  |  |  |  |  |  | 
C=CC(=O)Nc1cc(-c2c(-c3cccc(CN4CCOCC4)c3)[nH]c3nccc(Cl)c23)ccc1C [Example 7, N-(5-(4-chloro-2-(3-(morpholinomethyl)phenyl)-1H-pyrrolo[2,3-b]pyridin-3-yl)-2-methylphenyl)acrylamide] | >99 | 500 to 1000 | 1000 to 10000 | ≤ 100 | 100 to 500 | 100 to 500 | 500 to 1000 |  | 
C=CC(=O)Nc1cc(-c2c(-c3ccc(N4CCN(C)CC4)cc3)[nH]c3ncc(NC(=O)C(C)C)cc23)ccc1C [Example 200, N-(5-(5-isobutyramido-2-(4-(4-methylpiperazin-1-yl)phenyl)-1H-pyrrolo[2,3-b]pyridin-3-yl)-2-methylphenyl)acrylamide 2,2,2-trifluoroacetate] |  | 100 to 500 | 100 to 500 | ≤ 100 | ≤ 100 | 1000 to 100000 | ≤ 100 |  | 1000 to 100000
C=CC(=O)Nc1cc(-c2c(-c3ccc(CCO)cc3)[nH]c3ncc(C(=O)OC(C)C)cc23)ccc1C [Example 168, isopropyl 3-(3-acrylamido-4-methylphenyl)-2-(4-(2-hydroxyethyl)phenyl)-1H-pyrrolo[2,3-b]pyridine-5-carboxylate] |  | 500 to 1000 | 500 to 1000 | 100 to 500 | ≤ 100 | 1000 to 100000 | 100 to 500 |  | 1000 to 100000
C=CC(=O)Nc1cc(-c2c(-c3ccc(N4CCN(C)CC4)cc3)[nH]c3ncc(CC)cc23)ccc1C [Example 191, N-(5-(5-ethyl-2-(4-(4-methylpiperazin-1-yl)phenyl)-1H-pyrrolo[2,3-b]pyridin-3-yl)-2-methylphenyl)acrylamide 2,2,2-trifluoroacetate] |  | 100 to 500 | 100 to 500 | ≤ 100 | ≤ 100 | ≤ 100 | ≤ 100 |  | 1000 to 100000
C=CC(=O)Nc1cc(-c2c(-c3ccc(N4CCN(C)CC4)cc3)[nH]c3ncc(C(=O)OCCOC)cc23)ccc1C [Example 140, 2-methoxyethyl 3-(3-acrylamido-4-methylphenyl)-2-(4-(4-methylpiperazin-1-yl)phenyl)-1H-pyrrolo[2,3-b]pyridine-5-carboxylate] |  | 100 to 500 | 100 to 500 | ≤ 100 | ≤ 100 | 100 to 500 | ≤ 100 |  | 1000 to 100000
